In assay [1] the test system is pre-ejaculated epididymal murine spermatozoa. Kind of assay: Sperm capacitation measured with chlorotetracycline (CTC). The following applies: for number of capacitated sperm: P<0.001. It counts as cell-based, mouse. The procedure: The extent of capacitation was measured using chlorotetracycline (CTC) and the degree of capacitation was assessed in control and adenosine-5′-triphosphate (ATP)-treated samples. All data is expressed as mean+s.e.mean, n=3, ***=P<0.001, Student's t-test).
Sperm suspensions were prepared by releasing the contents of mouse epididymides from 3 PDE11 knockout (KO) and 3 wild type (WT) mice into Tyrodes media. The extent of capacitation was measured using chlorotetracycline (CTC), 750 μM for 15 min at 37° C. The patterns of CTC fluorescence were observed under microscopy (Reference: Fraser, L. R. & Herod, J. E. Expression of capacitation-dependent changes in chlortetracycline fluorescence patterns in mouse spermatozoa requires a suitable glycolysable substrate. J. Reprod. Fert., 1990; 88(2): 611-21). Patterns reflected the functional state of spermatozoa, i.e. capacitated, uncapacitated and acrosome loss.

Another assay relates to recombinant human PDE7. Nature of the assay: PDE inhibition SPA assay, PDE7. It counts as biochemical. To be noted: geometric mean of at least 3 determinations; substrate <= 1/3 Km.
A further assay relates to recombinant human PDE8. Kind of assay: PDE inhibition SPA assay, PDE8. It counts as biochemical. To be noted: geometric mean of at least 3 determinations; substrate <= 1/3 Km.
Assay [2] has as its target T1, PDE6 isolated from bovine retina (Bos taurus, UniProt P11541+P23439).
T1 construct: PDE6 was isolated from bovine retina; from tissue; host or cells: bovine retina
T1 sequence (P11541 2-856 limits assumed): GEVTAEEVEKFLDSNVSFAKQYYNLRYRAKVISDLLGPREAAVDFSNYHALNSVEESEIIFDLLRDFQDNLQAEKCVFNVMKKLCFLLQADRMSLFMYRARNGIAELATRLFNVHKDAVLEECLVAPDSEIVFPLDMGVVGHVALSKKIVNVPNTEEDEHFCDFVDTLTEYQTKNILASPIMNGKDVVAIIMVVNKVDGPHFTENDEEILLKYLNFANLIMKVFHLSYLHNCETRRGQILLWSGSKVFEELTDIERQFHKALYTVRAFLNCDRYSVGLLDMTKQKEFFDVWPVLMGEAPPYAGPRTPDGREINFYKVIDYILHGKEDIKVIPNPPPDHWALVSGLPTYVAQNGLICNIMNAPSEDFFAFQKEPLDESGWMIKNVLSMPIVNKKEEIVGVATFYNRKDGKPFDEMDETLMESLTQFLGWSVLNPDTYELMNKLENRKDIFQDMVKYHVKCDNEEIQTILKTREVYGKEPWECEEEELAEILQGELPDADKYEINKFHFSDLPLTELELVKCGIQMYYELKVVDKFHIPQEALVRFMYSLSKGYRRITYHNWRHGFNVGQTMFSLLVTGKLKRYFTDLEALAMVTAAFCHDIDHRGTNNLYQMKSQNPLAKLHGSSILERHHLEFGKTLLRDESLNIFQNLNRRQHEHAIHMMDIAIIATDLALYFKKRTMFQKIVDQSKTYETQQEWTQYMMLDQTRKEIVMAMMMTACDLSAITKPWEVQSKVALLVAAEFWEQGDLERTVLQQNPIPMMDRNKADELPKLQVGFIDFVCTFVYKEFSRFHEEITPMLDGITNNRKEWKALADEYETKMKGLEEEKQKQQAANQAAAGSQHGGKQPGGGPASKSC
T1 sequence (P23439 2-850 limits assumed): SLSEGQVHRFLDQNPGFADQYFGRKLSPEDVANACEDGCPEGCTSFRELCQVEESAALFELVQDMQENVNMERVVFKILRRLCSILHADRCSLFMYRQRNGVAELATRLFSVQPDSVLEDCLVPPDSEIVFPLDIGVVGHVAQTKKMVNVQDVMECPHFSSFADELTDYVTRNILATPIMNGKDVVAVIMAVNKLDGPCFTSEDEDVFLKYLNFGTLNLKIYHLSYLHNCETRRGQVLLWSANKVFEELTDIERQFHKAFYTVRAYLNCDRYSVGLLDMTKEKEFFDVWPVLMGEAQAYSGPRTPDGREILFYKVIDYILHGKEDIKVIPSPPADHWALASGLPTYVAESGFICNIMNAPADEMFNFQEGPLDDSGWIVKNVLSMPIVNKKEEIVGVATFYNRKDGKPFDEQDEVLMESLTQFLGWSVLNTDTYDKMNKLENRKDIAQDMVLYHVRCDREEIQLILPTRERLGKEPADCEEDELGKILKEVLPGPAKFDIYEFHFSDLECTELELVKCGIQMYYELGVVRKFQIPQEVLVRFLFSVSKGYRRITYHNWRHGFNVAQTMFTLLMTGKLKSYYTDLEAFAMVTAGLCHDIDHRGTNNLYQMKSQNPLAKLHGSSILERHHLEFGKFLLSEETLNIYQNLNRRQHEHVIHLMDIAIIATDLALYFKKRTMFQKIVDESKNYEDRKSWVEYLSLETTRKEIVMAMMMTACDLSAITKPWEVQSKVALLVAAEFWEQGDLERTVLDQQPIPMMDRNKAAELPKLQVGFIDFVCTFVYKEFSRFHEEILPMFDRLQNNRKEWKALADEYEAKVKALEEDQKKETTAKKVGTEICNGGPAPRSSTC
Nature of the assay: PDE inhibition SPA assay, PDE6. It counts as biochemical.

Counter-ions that a name gives are not always drawn. Where only a bound is given, the exact number is not on record here.

What is called IC50 is the point on the concentration scale where inhibition reaches its midpoint.

As for `Nc1ncnc2c1ncn2[C@@H]1O[C@H](COP(=O)(O)OP(=O)(O)OP(=O)(O)O)[C@@H](O)[C@H]1O` [ATP, adenosine-5′-triphosphate], the “number of capacitated murine spermatozoa” value in assay [1] (1 hr incubation, both PDE11 KO and WT samples, concentration not given) is “significantly increased”. Besides, the “number of capacitated sperm” value in assay [1] (ATP 1.0 mM, spermatozoa obtained from PDE11 KO mice only) is listed as “significantly increased”; in assay [1] (ATP 2.5 mM, 1 hr incubation, all murine spermatozoa samples (PDE11 KO and WT)), “significantly increased”.
Turning to `CCCc1nn(C)c2c(=O)[nH]c(-c3cc(S(=O)(=O)N4CCN(C)CC4)ccc3OCC)nc12` [Sildenafil, sildenafil], in the assay with recombinant human PDE7, the IC50 came out at 19.7 µM.
For the molecule `O=C(O)C1CCN(c2nc(NCc3ccc4c(c3)OCO4)c3cc(Cl)ccc3n2)CC1` [UK-227,786 (E4021), 1-[4-[(1,3-benzodioxol-5-ylmethyl)amino]-6-chloro-2-quinazolinyl]-4-piperidinecarboxylic acid, monohydrochloride], the IC50 is over 100 µM with recombinant human PDE8, 4.7 µM in assay [2] and over 100 µM with recombinant human PDE7.
For `CN1CC(=O)N2[C@H](c3ccc4c(c3)OCO4)c3[nH]c4ccccc4c3C[C@@H]2C1=O` [UK-336,017 (IC351), (6R, 12aR)-6-(1,3-benzodioxol-5-yl)-2,3,6,7,12,12a-hexahydro-2-methyl-pyrazino[1′,2′:1,6]pyrido[3,4-b]indole-1,4-dione], the IC50 in the assay on recombinant human PDE8 and in the assay with recombinant human PDE7 was over 100 µM each time.
